Experimental data reported in ChEMBL document CHEMBL3872210, “Synthesis and antiproliferative mechanism of action of pyrrolo[3',2':6,7] cyclohepta[1,2-d]pyrimidin-2-amines as singlet oxygen photosensitizers” (Eur J Med Chem, 2016).
Calls of active or inactive are those of the source. The rule behind the calls is not given here.

Tests used:
MCF7 [1] = assay: Induction of mitochondrial fusion in human MCF7 cells at 400 nM irradiated with 1.5 J/cm2 UV-light measured after 6 hrs by Mitotracker orange CMTM-ROS/Nuclear green staining based confocal microscopic method; format: functional, cell-based
MCF7 [2] = assay: Induction of lysosomal dysfunction in human MCF7 cells at 400 nM irradiated with 1.5 J/cm2 UV-light measured after 6 hrs by Lysotracker green DND staining based confocal microscopic method; format: functional, cell-based
[3] = Photocytotoxicity against human MCF7 cells assessed as increase in production of radical oxygen species at 400 nM pretreated for 30 mins followed by 1.5 J/cm2 UV-light irradiation for 5 mins measured after 2 hrs by H2DCFDA dye based fluorescence assay relative to control; format: functional
[4] = Photocytotoxicity against human MCF7 cells assessed as increase in production of radical oxygen species at 400 nM pretreated for 30 mins followed by 1.5 J/cm2 UV-light irradiation for 5 mins measured after 6 hrs by H2DCFDA dye based fluorescence assay relative to control; format: functional

In the case of `CCCCCCCCCCCCCC(=O)O[C@@H]1[C@@H](C)[C@@]2(O)[C@@H](C=C(CO)C[C@]3(O)C(=O)C(C)=C[C@@H]23)[C@@H]2C(C)(C)[C@]12OC(C)=O` [PHORBOL MYRISTATE ACETATE], the Activity (MCF7 [1]) is reported as “Active”, the Activity (MCF7 [2]) is reported as “Active” and the Activity [3] is reported as 120%. It also gave an Activity [4] of 420%.
